The source of these data is patent US20220412956A1, “METHODS FOR ASSESSING TOXICITY OF A COMPOUND” (The Chinese University of Hong Kong, priority 2021, published 2022).

In data set [1] the test system is hiPSC-CMs. Kind of data set: Mitochondrial mass, mitotracker dye (MTDR) intensity. The format is cell-based, human. As to conditions: 0.1-12.5 μM, 3 days, normoxic and hypoxic. The protocol:
(§1) Cells were incubated with Mitotracker Deep Red FM dye (200 nM; Thermo Fisher Scientific) and Hoescht 33342 dye (5 μg/ml; Thermo Fisher Scientific) for 30 min at 37° C., after which they were fixed with 4% paraformaldehyde at room temperature for 15 min followed by 15 min wash with PBS and imaged with a Leica THUNDER Imager microscope or Nikon AIR HD25 confocal microscope.
The first consisted of densely organised, elongated mitochondrial networks spread throughout the cytoplasm and this is considered to represent a healthy balance of fission and fusion. The second had punctate, fragmented mitochondria consistent with increased fission.

The test system of data set [2] is hiPSC-CMs. Kind of data set: Mitochondrial membrane potential (Δψm), TMRE. The format is cell-based, human. As to conditions: 3 days, treated vs control. The protocol:
Δψm was measured using the tetramethylrhodamine, ethyl ester (TMRE), a potentiometric dye whose fluorescent intensity is proportional to the mitochondrial potential. CMs were plated into Matrigel-coated surfaces in RPMI/B27 medium. Cells were incubated with TMRE (25 nM; Thermo Fisher Scientific) for 30 min at 37° C., after which they were washed with DPBS and intensity of fluorescence was measured using the Synergy HTX plate-reader (Biotek, Winooski, Vt.) with excitation and emission wavelengths of 540 nm and 590 nm.

For data set [3], the system named is hiPSC-CMs. Kind of data set: Mitochondrial morphology, Mitotracker staining (elongated / punctate / perinuclear). Also noted: perinuclear mitochondria: dose or concentration left out as unconfirmed. As to conditions: for proportion of cells with punctate, fragmented mitochondria / proportion of punctate mitochondria / proportion of elongated mitochondria: 3 days; for proportion of cells with punctate, fragmented mitochondria: control 21.0±5.9%; for proportion of cells with punctate mitochondria / elongated mitochondria: 3 days hypoxic treatment + 3 days recovery; for proportion of cells with punctate mitochondria: control 46.1±[…]; for elongated mitochondria: control 47.4±4.9%; for proportion of punctate mitochondria / proportion of elongated mitochondria: hypoxic; for proportion of punctate mitochondria: control 37.3±6.1%; for proportion of elongated mitochondria: control 45.1±7.8%; for proportion of cells with healthy elongated mitochondria: FIG. 8C; for mitochondrial morphology (MTDR dye): FIG. 8B, treated CMs vs control.

The subject of data set [4] is hiPSC-CMs.
Data set [5] relates to ND1, ND5, SDHA, COX6A2, ATP6, ACADVL mRNA. Kind of data set: qRT-PCR of genes important for mitochondrial function. The format is cell-based, human. As to conditions: 3 days, normoxic or hypoxic, normalised to B2M. Here is the method: Total RNA was extracted using Trizol Reagent according to the manufacturer's instructions (Thermo Fisher Scientific). Extracted RNA was reverse transcribed using PrimeScript RT Master Mix (Takara). Quantitative RT-PCR of target genes was performed with GoTaq® qPCR Master Mix (Promega) using an QuantStudio™ 12K Flex. Gene transcript abundance was normalised to B2M and then to that of the untreated sample to control for biological variations among the different sets of samples.
Of the ETC genes, ND1, ND5 and ATP6 are encoded by the mitochondrial genome, while COX6A2 and SDHA are encoded by the nuclear genome. […] Overall, the general repression of ETC gene transcripts was consistent with and might contribute to the reduced redox potential observed (FIG. 1A).
Background: Quantitative PCR measures a nucleic acid by following its amplification.

Data set [6] has as its system hiPSC-CMs. Kind of data set: Nuclear condensation / nuclear morphology / cell number, Hoescht staining. The format is cell-based, human. Here is the method:
as §1
Similarly, nuclei were scored as normal (relatively large nuclei with regular shape) or condensed (intensely stained nuclei with irregular shape) by a technician blinded to the identities of the samples.
Nuclear condensation is a sign of apoptosis and manifest as brightly-stained, small and ‘condensed’ nuclei.

Data set [7] relates to hiPSC-CMs. Kind of data set: In vitro hiPSC-CM cardiotoxicity model, overall. The format is cell-based, human. As to conditions: 0.1 μM and 0.5 μM. An excerpt: Importantly, these changes persisted and worsened after the withdrawal of this drug.
Human iPSC-CMs were exposed to remdesivir under normal and hypoxic conditions for three days. There is a paucity of data which directly correlates oxygen saturation in vivo with oxygen concentration in vitro. […] Human iPSC-CMs exposed to 2.5% 02 were viable, beat and were morphologically indistinguishable from hiPSC-CMs cultured under normoxic (20% 02) conditions.
Importantly, these abnormalities persisted after cessation of treatment, culminating in increased cell death.

Data set [8] relates to HT29, HCT116, HepG2 and PLC/PRF/5. As to conditions: high doses of 10 or 20 μM; cited from earlier work.
The test system of data set [9] is hiPSC-CMs. As to conditions: human.
The subject of data set [10] is hiPSC-CMs. The source holds these as a separate data set.
For data set [11] the following is noted: cited from earlier work.
In another data set the test system is hPSC-CMs. As to conditions: cited from earlier work.
For data set [12] the following is noted: cited from earlier work; for peak plasma concentration: healthy adult volunteers; for Cmax: healthy volunteers, read-out: Cmax / peak plasma concentration.
Data set [13] concerns the target human mitochondrial RNA polymerase (Homo sapiens, UniProt O00411). As to conditions: purified enzyme; cited from earlier work.
The subject of data set [14] is hiPSC-CMs. The source holds these as a separate data set.
Where [15] appears, read: co-treatment with 12.5 μM remdesivir.

“Also recorded” adds a separate entry of the source. Like-named read-outs stand apart in the source and are kept apart here.

human mitochondrial RNA polymerase, sequence (O00411 42-1230): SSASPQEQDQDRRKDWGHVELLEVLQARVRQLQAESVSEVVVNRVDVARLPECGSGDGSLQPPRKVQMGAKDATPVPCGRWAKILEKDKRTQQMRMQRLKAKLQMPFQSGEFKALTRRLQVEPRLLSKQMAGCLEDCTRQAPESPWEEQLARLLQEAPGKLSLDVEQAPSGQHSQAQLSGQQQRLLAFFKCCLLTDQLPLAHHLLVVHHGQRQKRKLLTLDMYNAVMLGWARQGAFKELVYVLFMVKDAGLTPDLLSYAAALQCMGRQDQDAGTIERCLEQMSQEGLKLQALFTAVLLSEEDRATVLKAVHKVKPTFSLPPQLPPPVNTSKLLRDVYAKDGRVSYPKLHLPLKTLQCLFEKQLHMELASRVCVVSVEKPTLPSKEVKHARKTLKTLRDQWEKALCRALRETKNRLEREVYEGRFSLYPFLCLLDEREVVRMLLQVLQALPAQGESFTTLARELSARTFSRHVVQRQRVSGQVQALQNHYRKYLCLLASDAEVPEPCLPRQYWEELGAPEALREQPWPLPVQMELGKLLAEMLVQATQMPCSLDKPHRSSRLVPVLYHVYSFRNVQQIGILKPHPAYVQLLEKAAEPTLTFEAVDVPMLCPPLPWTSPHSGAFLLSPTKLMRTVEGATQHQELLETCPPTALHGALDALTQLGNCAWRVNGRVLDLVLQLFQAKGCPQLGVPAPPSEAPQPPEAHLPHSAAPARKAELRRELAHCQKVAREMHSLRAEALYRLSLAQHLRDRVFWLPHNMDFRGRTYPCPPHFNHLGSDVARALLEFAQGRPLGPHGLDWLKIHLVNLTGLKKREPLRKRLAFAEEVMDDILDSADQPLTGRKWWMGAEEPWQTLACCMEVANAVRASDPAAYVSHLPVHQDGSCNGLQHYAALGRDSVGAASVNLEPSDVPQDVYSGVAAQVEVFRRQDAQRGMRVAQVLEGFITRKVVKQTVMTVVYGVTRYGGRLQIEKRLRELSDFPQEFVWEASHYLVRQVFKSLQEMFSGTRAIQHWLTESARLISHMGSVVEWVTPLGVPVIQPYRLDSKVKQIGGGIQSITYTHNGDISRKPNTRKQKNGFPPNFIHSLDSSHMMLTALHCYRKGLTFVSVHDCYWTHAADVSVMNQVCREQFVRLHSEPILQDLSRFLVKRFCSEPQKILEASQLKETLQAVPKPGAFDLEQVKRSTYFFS

For `CCC(CC)COC(=O)[C@H](C)N[P@](=O)(OC[C@H]1O[C@@](C#N)(c2ccc3c(N)ncnn23)[C@H](O)[C@@H]1O)Oc1ccccc1` [remdesivir], the mitochondrial mass entry with hiPSC-CMs [1] is on record as “not statistically different”. In addition, in the data set on hiPSC-CMs [2], the “depolarisation of mitochondrial membrane potential (Δψm)” value is on record as “No statistically significant decrease”. Further, the “mitochondrial morphology, treated vs control” value in the data set with hiPSC-CMs [3] (0.5 μM, 3 days treatment + 3 days recovery) was “no significant difference”. For the same molecule, the “proportion of cells with punctate, fragmented mitochondria” value is recorded as 44.4±7.1% with hiPSC-CMs [3] (0.5 μM, normoxic); 57.3±7.2% in the data set with hiPSC-CMs [3] (2.5 μM, normoxic); 64.4±9.5% with hiPSC-CMs [3] (12.5 μM, normoxic). Also, the “proportion of cells with punctate mitochondria” value came out at 66.1±1.1% with hiPSC-CMs [3] (2.5 μM) and 65.5±6.6% in the data set on hiPSC-CMs [3] (12.5 μM). In addition, the elongated mitochondria amounted to 19.7±2.5% in the data set on hiPSC-CMs [3] (2.5 μM) and 4.6±2.1% in the data set with hiPSC-CMs [3] (12.5 μM). Also, the “proportion of punctate mitochondria” value in the data set with hiPSC-CMs [3] (2.5 μM) was found to be 64.4±4.1%; in the data set with hiPSC-CMs [3] (12.5 μM), 58.9±8%. The “proportion of elongated mitochondria” value in the data set with hiPSC-CMs [3] (2.5 μM) is 18.7±3.0%; with hiPSC-CMs [3] (12.5 μM) it was 17.8±4.2%. For the same molecule, in the data set with hiPSC-CMs [3] (12.5 μM, 3 days treatment + 3 days recovery (follows the hypoxic data), control 6.5±1.5%), the “proportion of cells with perinuclear mitochondria” value stood at 29.9±5.7%. In addition, the perinuclear mitochondria result in the data set on hiPSC-CMs [3] (3 days treatment + 3 days recovery (FIG. 4C)) was “enriched”. Besides, the “proportion of cells with healthy elongated mitochondria” value with hiPSC-CMs [3] was “reduced”. In addition, in the data set on hiPSC-CMs [4] (0.1 μM and 0.5 μM, 3 days, normoxic and hypoxic), the “effect on redox potential” value is listed as “negligible effects”. Also, the “decrease of redox potential” value is recorded as 41.0±8.7% in the data set with hiPSC-CMs [4] (2.5 μM, 3 days hypoxic treatment + 3 days recovery without drug); 54.6±8.5% in the data set with hiPSC-CMs [4] (12.5 μM, 3 days hypoxic treatment + 3 days recovery without drug); 44.1±8.1% in the data set on hiPSC-CMs [4] (12.5 μM, 3 days normoxic treatment + 3 days recovery without drug). The “decrease of redox activity” value amounted to 22.5±5.4% in the data set with hiPSC-CMs [4] (2.5 μM, 3 days, hypoxic (2.5% O2)); 21.0±3.9% in the data set with hiPSC-CMs [4] (2.5 μM, 3 days, normoxic); 28.7±6.9% in the data set with hiPSC-CMs [4] (12.5 μM, 3 days, hypoxic (2.5% O2)); 35.9±4.0% with hiPSC-CMs [4] (12.5 μM, 3 days, normoxic). For the same molecule, in [5], the “ATP6 mRNA expression” value was “dose-dependently and significantly reduced”. Further, the “COX6A2 mRNA expression” value in data set [5] is “dose-dependently and significantly reduced”. Also, the “ND1 mRNA expression” value in [5] was “dose-dependently and significantly reduced”. Also, in [5], the “ND5 mRNA expression” value is “dose-dependently and significantly reduced”. In addition, the “proportion of condensed nuclei” value in the data set with hiPSC-CMs [6] (2.5 μM and 12.5 μM, three days after treatment (recovery)) is “dose dependent increase”. The cell number result in the data set on hiPSC-CMs [6] (3 days, all samples) is given as “No significant difference”. For the same molecule, in the data set with hiPSC-CMs [6] (immediately after 3 days of treatment), the “number / proportion of cells with condensed nuclei” value is listed as “did not reveal any significant increase; also recorded: no statistically significant difference”. The persistent functional alterations result in the data set on hiPSC-CMs [7] is reported as “did not induce persistent functional alterations”. The mitochondrial toxicity entry in data set [8] is “demonstrated”. For the same molecule, the spontaneous firing frequency with hiPSC-CMs [9] was 0.36±0.07 Hz. In addition, the sarcomeric arrangement entry with hiPSC-CMs [10] (0.5 μM, 3 days, hypoxia) is “induced the thinning and truncation of myofibrils”; in the data set with hiPSC-CMs [10] (2.5 μM and 12.5 μM, 3 days treatment + 3 days recovery) it was “disorganised sarcomeric arrangement”; in the data set with hiPSC-CMs [10] (0.1 and 0.5 μM, 3 days, normoxic), “did not have any noticeable effect”; in the data set with hiPSC-CMs [10] (2.5 and 12.5 μM, 3 days, normoxic and hypoxic), “greatly disorganised myofibrils”. The “rate of cardiac death” value in [11] (WHO Solidarity trial, comparator 0.4%) is listed as 0.3%. For the same molecule, the serious atrial fibrillation in [11] (one clinical study, placebo 0.2%) is recorded as 0.9%. Further, the “risk of cardiac arrest” value in data set [11] (one clinical study, placebo 1.4%) was 1.9%. For the same molecule, the QT intervals entry with hPSC-CMs is “prolong QT intervals”. In addition, the peak plasma concentration in data set [12] (day 1 (200 mg)) was 5.4 µg/mL; in data set [12] (day 5), 2.6 µg/mL. The Cmax in data set [12] (day 1 (200 mg)) was 8.9 µM; in data set [12] (day 5) it was 4.3 µM.
β-D-N4-hydroxycytidine: in the data set on hiPSC-CMs [3], the “mitochondrial morphology (MTDR dye)” value was “punctate (arrowhead) or perinuclear (arrow) mitochondria” and the “proportion of cells with healthy elongated mitochondria” value is recorded as “reduced”.
In the same order, the values of `COc1nc(N)nc2c1ncn2[C@@H]1O[C@H](COP(=O)(N[C@@H](C)C(=O)OCC(C)(C)C)Oc2cccc3ccccc23)[C@@H](O)[C@@]1(C)O` (some centres unmarked) [BMS-986094] are “punctate (arrowhead) or perinuclear (arrow) mitochondria” and “reduced”.
As for `N#C[C@@]1(c2ccc3c(N)ncnn23)O[C@H](COP(=O)(O)OP(=O)(O)OP(=O)(O)O)[C@@H](O)[C@H]1O` [remdesivir-triphosphate], in [13], the “selectivity value (discrimination against the analogue)” value is on record as roughly 500 fold.
For `COc1cc(-n2c(=S)[nH]c3ccccc3c2=O)c(Cl)cc1Cl` [mdivi-1], in the data set on hiPSC-CMs [3] (MD 15 mM, (FIG. 5B)), the “proportion of cells with elongated mitochondria” value is on record as “increased the proportion of cells with elongated mitochondria”. Besides, the “formation of elongated mitochondria vs remdesivir alone” value in the data set with hiPSC-CMs [3] (co-treatment with 2.5 μM remdesivir, normoxic) is “significantly promoted the formation of elongated mitochondria”. Besides, in the data set on hiPSC-CMs [3] (setting [15]), the “protection of mitochondrial morphology” value is listed as “could only significantly protect hiPSC-CMs under hypoxic but not normoxic conditions”. In the data set with hiPSC-CMs [3] (co-treatment with remdesivir, hypoxia), the “proportion of cells with punctate mitochondria vs remdesivir alone” value is “corresponding decrease”. Also, the redox potential result in the data set on hiPSC-CMs [4] (co-treatment with 2.5 μM remdesivir, normoxic and hypoxic) was “restored redox potential”; in the data set on hiPSC-CMs [4] (setting [15]), “did not have noticeable effect”. Further, the “sarcomeres (MLC2V-eGFP)” value in the data set on hiPSC-CMs [10] (MD 15 mM co-treatment vs remdesivir alone (FIG. 5D)) is on record as “more striated sarcomeres”. Also, the sarcomere arrangement entry with hiPSC-CMs [10] (co-treatment with 2.5 μM and 12.5 μM remdesivir) is listed as “improved the sarcomere arrangement”.
For the molecule `NC(=O)c1ncn([C@@H]2O[C@H](CO)[C@@H](O)[C@H]2O)n1` [ribavirin], the “mitochondrial morphology (MTDR dye)” value in the data set with hiPSC-CMs [3] was “primarily had elongated mitochondria”. Besides, in the data set on hiPSC-CMs [14], the “proportion of cells with healthy elongated mitochondria” value is listed as “did not have noticeable effect”.
